Source: ChEMBL document CHEMBL3244355, “Quinolone antimicrobial agents. 2. Methylenedioxy positional isomers of oxolinic acid” (1979)
≈ marks a conversion by molar mass, not a printed value.

Key:
Staphylococcus aureus = test: Antimicrobial activity against Staphylococcus aureus ATCC 6538P assessed as growth inhibition by agar dilution-streak method; format: functional
Escherichia coli = test: Antimicrobial activity against Escherichia coli ATCC 26 assessed as growth inhibition by agar dilution-streak method; format: functional
Enterococcus faecalis = test: Antimicrobial activity against Streptococcus faecalis ATCC 8043 assessed as growth inhibition by agar dilution-streak method; format: functional
Proteus mirabilis = test: Antimicrobial activity against Proteus mirabilis Finland 9 assessed as growth inhibition by agar dilution-streak method; format: functional
Acinetobacter sp. = test: Antimicrobial activity against Acinetobacter sp. 2347 assessed as growth inhibition by agar dilution-streak method; format: functional
Shigella sonnei = test: Antimicrobial activity against Shigella sonnei ATCC 9290 assessed as growth inhibition by agar dilution-streak method; format: functional
Serratia marcescens = test: Antimicrobial activity against Serratia marcescens ATCC 4003 assessed as growth inhibition by agar dilution-streak method; format: functional
Pseudomonas aeruginosa = test: Antimicrobial activity against Pseudomonas aeruginosa BMH 1 assessed as growth inhibition by agar dilution-streak method; format: functional
Salmonella typhi = test: Antimicrobial activity against Salmonella typhi ATCC 9992 assessed as growth inhibition by agar dilution-streak method; format: functional, Salmonella enterica subsp. enterica serovar Typhi; conditions: Salmonella enterica
Klebsiella pneumoniae = test: Antimicrobial activity against Klebsiella pneumoniae ATCC 8045 assessed as growth inhibition by agar dilution-streak method; format: functional
Proteus vulgaris = test: Antimicrobial activity against Proteus vulgaris ATCC 6897 assessed as growth inhibition by agar dilution-streak method; format: functional

For `CCn1cc(C(=O)O)c(=O)c2c3c(ccc21)OCO3`, the MIC (Staphylococcus aureus) was > 100 µg/mL, the MIC (Escherichia coli) was > 100 µg/mL and the MIC (Enterococcus faecalis) was > 100 µg/mL. The MIC (Proteus mirabilis) was > 100 µg/mL, the MIC (Acinetobacter sp.) was > 100 µg/mL and the MIC (Shigella sonnei) was > 100 µg/mL. For the same compound, the MIC (Serratia marcescens) was > 100 µg/mL, the MIC (Pseudomonas aeruginosa) was > 100 µg/mL and the MIC (Salmonella typhi) was > 100 µg/mL. It also gave an MIC (Klebsiella pneumoniae) of 25 µg/mL (≈ 95.7 µM) and an MIC (Proteus vulgaris) of 100 µg/mL (≈ 383 µM).

`CCn1cc(C(=O)O)c(=O)c2ccc3c(c21)OCO3` was tested, and the MIC (Staphylococcus aureus) was 25 µg/mL (≈ 95.7 µM), the MIC (Escherichia coli) was 6.25 µg/mL (≈ 23.9 µM) and the MIC (Enterococcus faecalis) was > 100 µg/mL. The MIC (Proteus mirabilis) was 50 µg/mL (≈ 191 µM), the MIC (Acinetobacter sp.) was 6.25 µg/mL (≈ 23.9 µM) and the MIC (Shigella sonnei) was 3.13 µg/mL (≈ 12 µM). For the same compound, the MIC (Serratia marcescens) was 3.13 µg/mL (≈ 12 µM), the MIC (Pseudomonas aeruginosa) was > 100 µg/mL and the MIC (Salmonella typhi) was 12.5 µg/mL (≈ 47.9 µM). For the same compound, the MIC (Klebsiella pneumoniae) was 1.56 µg/mL (≈ 5.97 µM) and the MIC (Proteus vulgaris) was 3.13 µg/mL (≈ 12 µM).

With `CCn1cc(C(=O)O)c(=O)c2cc3c(cc21)OCO3` [OXOLINIC ACID] the MIC (Staphylococcus aureus) was 0.78 µg/mL (≈ 2.99 µM), the MIC (Escherichia coli) was 0.1 µg/mL (≈ 0.383 µM) and the MIC (Enterococcus faecalis) was 25 µg/mL (≈ 95.7 µM). The MIC (Proteus mirabilis) was 0.78 µg/mL (≈ 2.99 µM), the MIC (Acinetobacter sp.) was 0.4 µg/mL (≈ 1.53 µM) and the MIC (Shigella sonnei) was 0.2 µg/mL (≈ 0.766 µM). For the same compound, the MIC (Serratia marcescens) was 0.1 µg/mL (≈ 0.383 µM), the MIC (Pseudomonas aeruginosa) was 12.5 µg/mL (≈ 47.9 µM) and the MIC (Salmonella typhi) was 0.2 µg/mL (≈ 0.766 µM). For the same compound, the MIC (Klebsiella pneumoniae) was > 0.05 µg/mL and the MIC (Proteus vulgaris) was > 0.05 µg/mL.
